According to the supplement of paper PMC10307832:

What was measured:
Assay in all cases: relative viability (nuclei count vs DMSO), 5 days (fraction); higher = more cells survive
Doxorubicin + Dasatinib = compound: COc1cccc2c1C(=O)c1c(O)c3c(c(O)c1C2=O)C[C@@](O)(C(=O)CO)C[C@@H]3O[C@H]1C[C@H](N)[C@H](O)[C@H](C)O1 [Doxorubicin] + Cc1nc(Nc2ncc(C(=O)Nc3c(C)cccc3Cl)s2)cc(N2CCN(CCO)CC2)n1 [Dasatinib] (partner 0.075 µM)
Summary of the method: (§1)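 Relative viability is defined as nuclei in treated wells over nuclei in vehicle wells. Duplicate plates were run and medians reported. Lung cancer cell lines in 1536-well plates were dosed by pin tool one day after seeding, with one drug or with a fixed anchor-drug dose plus five library-drug doses (not always all listed) in √10 steps, and nuclei were counted after 5 days.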

Doxorubicin + Navitoclax = compound: COc1cccc2c1C(=O)c1c(O)c3c(c(O)c1C2=O)C[C@@](O)(C(=O)CO)C[C@@H]3O[C@H]1C[C@H](N)[C@H](O)[C@H](C)O1 [Doxorubicin] + CC1(C)CCC(c2ccc(Cl)cc2)=C(CN2CCN(c3ccc(C(=O)NS(=O)(=O)c4ccc(N[C@H](CCN5CCOCC5)CSc5ccccc5)c(S(=O)(=O)C(F)(F)F)c4)cc3)CC2)C1 [Navitoclax] (partner 0.5 µM)
Summary of the method: as §1

BAY61-3606 + Crizotinib = compound: COC1=C(C=C(C=C1)C2=CC3=NC=CN3C(=N2)NC4=C(C=CC=N4)C(=O)N)OC [BAY61-3606] + C[C@@H](Oc1cc(-c2cnn(C3CCNCC3)c2)cnc1N)c1c(Cl)ccc(F)c1Cl [Crizotinib] (partner 1 µM)
Summary of the method: as §1

Doxorubicin + Luminespib = compound: COc1cccc2c1C(=O)c1c(O)c3c(c(O)c1C2=O)C[C@@](O)(C(=O)CO)C[C@@H]3O[C@H]1C[C@H](N)[C@H](O)[C@H](C)O1 [Doxorubicin] + CCNC(=O)c1noc(-c2cc(C(C)C)c(O)cc2O)c1-c1ccc(CN2CCOCC2)cc1 [Luminespib] (partner 0.01 µM)
Summary of the method: as §1

Cell Line	relative viability (Doxorubicin + Dasatinib; first compound 0.001 µM)	relative viability (Doxorubicin + Dasatinib; first compound 0.003162 µM)	relative viability (Doxorubicin + Dasatinib; first compound 0.01 µM)	relative viability (Doxorubicin + Dasatinib; first compound 0.03162 µM)	relative viability (Doxorubicin + Dasatinib; first compound 0.1 µM)	relative viability (Doxorubicin + Navitoclax; first compound 0.001 µM)	relative viability (Doxorubicin + Navitoclax; first compound 0.003162 µM)	relative viability (Doxorubicin + Navitoclax; first compound 0.01 µM)	relative viability (Doxorubicin + Navitoclax; first compound 0.03162 µM)	relative viability (Doxorubicin + Navitoclax; first compound 0.1 µM)	relative viability (BAY61-3606 + Crizotinib; first compound 0.02 µM)	relative viability (BAY61-3606 + Crizotinib; first compound 0.06325 µM)	relative viability (BAY61-3606 + Crizotinib; first compound 0.2 µM)	relative viability (BAY61-3606 + Crizotinib; first compound 0.6325 µM)	relative viability (BAY61-3606 + Crizotinib; first compound 2 µM)	relative viability (Doxorubicin + Luminespib; first compound 0.001 µM)	relative viability (Doxorubicin + Luminespib; first compound 0.003162 µM)	relative viability (Doxorubicin + Luminespib; first compound 0.01 µM)	relative viability (Doxorubicin + Luminespib; first compound 0.03162 µM)	relative viability (Doxorubicin + Luminespib; first compound 0.1 µM)
201T	0.537	0.636	0.561	0.583	0.546	1.16	1.19	1.2	1.24	1.21	1.1	0.996	1.01	1.02	1.03	1.03	1.08	1.04	1.01	1.11
A549						1.15	0.977	0.468	0.0557	0.0324	0.758	0.756	0.712	0.713	0.406					
A-427	0.745	0.743	0.621	0.721	0.673	1	0.978	0.966	0.983	1.05	0.85	0.767	0.878	0.97	0.845	0.803	0.784	0.866	0.656	0.64
ABC-1	0.612	0.56	0.511	0.33	0.224						0.999	0.978	0.992	1.02	0.821	0.484	0.418	0.347	0.339	0.213
BEN	0.366	0.296	0.329	0.294	0.418	0.0762	0.071	0.0683	0.0474	0.0661	0.88	0.748	1.1	1.06	0.84	0.368	0.39	0.317	0.277	0.283
CAL-12T	0.302	0.461	0.346	0.195	0.118	1.09	1.16	1.24	0.423	0.182	0.619	0.537	0.493	0.364	0.205	0.523	0.394	0.555	0.289	0.239
COR-L23	0.466	0.629	0.486	0.27	0.128	1.03	1.12	0.82	0.63	0.169	0.697	0.67	0.527	0.667	0.509	0.678	0.637	0.567	0.163	0.147
COR-L 105	0.431	0.355	0.323	0.257	0.261	0.965	0.721	0.724	0.48	0.377	0.762	0.569	0.674	0.541	0.421	0.678	0.754	0.691	0.595	0.363
Calu-6						0.835	0.91	0.581	0.24	0.113	0.765	0.77	0.67	0.732	0.352					
ChaGo-K-1	0.633	0.62	0.56	0.479	0.543	1.16	0.807	0.888	0.515	0.316	1.09	0.832	1.06	1.14	1.05	0.614	0.592	0.651	0.52	0.54
EBC-1						0.488	0.524	0.377	0.171	0.123	0.2	0.195	0.23	0.16	0.224					
EKVX	0.581	0.504	0.601	0.539	0.501	0.929	1.09	1	0.853	0.61	0.972	0.868	0.976	1.15	0.806	0.784	1.02	0.828	0.847	0.834
EMC-BAC-2	0.357	0.316	0.263	0.171	0.12	1.16	1.25	1.16	1.19	1.15	0.775	0.696	0.755	0.817	0.573	1.25	1.18	1.04	0.551	0.425
EPLC-272H	0.41	0.418	0.371	0.417	0.343	1.11	1.37	0.971	1.11	1.05	1.03	0.762	0.89	0.87	0.811	0.209	0.262	0.339	0.259	0.253
H3255	0.359	0.388	0.436	0.333	0.33	0.603	0.617	0.53	0.457	0.289	0.922	0.854	0.902	1.05	0.752	0.982	0.84	0.841	0.75	0.829
HARA	0.26	0.344	0.296	0.261	0.23	1.17	1.09	1.18	1.05	1.15	1.08	1.08	1.06	1.07	0.892	0.644	1.1	0.696	0.641	0.325
HCC-15		0.654	0.493	0.191	0.0861	0.707	0.716	0.705	0.665	0.634	0.835	0.834	0.806	0.836	0.779		0.304	0.312	0.231	0.222
HCC-44						1.01	1.15	0.969	1.01	1.03	0.749	0.829	0.777	0.907	0.823	0.879	0.838	0.658	0.526	0.273
HCC-78	0.412	0.465	0.366	0.349	0.363	0.41	0.689	0.753	0.692	0.768	0.385	0.308	0.317	0.343	0.367					
HCC-366		0.757	0.614	0.238	0.212		1.03	0.99	0.809	1.07	0.506	0.495	0.566	0.461	0.162					

Cell Line	relative viability (Doxorubicin + Dasatinib; first compound 0.001 µM)	relative viability (Doxorubicin + Dasatinib; first compound 0.003162 µM)	relative viability (Doxorubicin + Dasatinib; first compound 0.01 µM)	relative viability (Doxorubicin + Dasatinib; first compound 0.03162 µM)	relative viability (Doxorubicin + Dasatinib; first compound 0.1 µM)	relative viability (Doxorubicin + Navitoclax; first compound 0.001 µM)	relative viability (Doxorubicin + Navitoclax; first compound 0.003162 µM)	relative viability (Doxorubicin + Navitoclax; first compound 0.01 µM)	relative viability (Doxorubicin + Navitoclax; first compound 0.03162 µM)	relative viability (Doxorubicin + Navitoclax; first compound 0.1 µM)	relative viability (BAY61-3606 + Crizotinib; first compound 0.02 µM)	relative viability (BAY61-3606 + Crizotinib; first compound 0.06325 µM)	relative viability (BAY61-3606 + Crizotinib; first compound 0.2 µM)	relative viability (BAY61-3606 + Crizotinib; first compound 0.6325 µM)	relative viability (BAY61-3606 + Crizotinib; first compound 2 µM)	relative viability (Doxorubicin + Luminespib; first compound 0.001 µM)	relative viability (Doxorubicin + Luminespib; first compound 0.003162 µM)	relative viability (Doxorubicin + Luminespib; first compound 0.01 µM)	relative viability (Doxorubicin + Luminespib; first compound 0.03162 µM)	relative viability (Doxorubicin + Luminespib; first compound 0.1 µM)
HCC-827	0.3	0.335	0.29	0.304	0.365	1.03	1.03	1.06	1.1	1.03	0.938	0.952	0.942	0.974	0.965	0.555	0.379	0.602	0.573	0.566
HOP-62	0.68	0.737	0.601	0.628	0.552	1.06	0.927	0.988	0.944	1.01	0.928		0.823	1.06	0.716	0.906	0.942	0.896	0.958	0.931
IA-LM						0.616	0.821	0.6	0.278	0.0497	1.04	0.865		0.987	0.67					
LC-2-ad	0.691	0.602	0.489	0.209	0.161	0.386	0.384	0.567	0.496	0.506		0.384	0.447	0.406	0.348	0.889	0.696	0.642	0.421	0.295
LCLC-97TM1	0.836	0.776	0.831	0.734	0.884	0.284	0.411	0.524	0.398	0.331	0.262		0.341	0.395	0.262	0.718	0.818	0.677	0.772	0.834
LCLC-103H	0.507	0.6	0.446	0.381	0.552						1.07	0.997	1.02	1.08	1.02	0.941	1.06	0.949	0.931	0.864
LK-2	0.326	0.284	0.221	0.286	0.265	0.894	0.875	0.889	0.638	0.804	0.227	0.216	0.228	0.202	0.201	0.171	0.215	0.235	0.162	0.16
NCI-H358	0.175	0.161	0.159	0.0904	0.0827						0.505	0.342	0.373	0.294	0.162	0.213	0.471	0.291	0.392	0.189
NCI-H522	0.724	1.04	0.873	0.776	1												1.21	1.12	0.885	1.15
NCI-H650	0.432	0.473	0.503	0.461	0.355						0.725	0.331	0.701	0.669	0.47	0.694	0.75	0.78	0.565	0.627
NCI-H661	0.829	0.846	0.786	0.412	0.316						0.914	0.806		0.984	0.957	0.915	0.909	0.858	0.574	0.378
NCI-H1299						1.05	1.06	1.08	1.06	0.947	0.98	0.961	1.01	0.992	0.93					
NCI-H1395	0.415	0.422	0.389	0.398	0.376	0.992	1	1.07	0.861	0.898						0.674	0.765	0.476	0.697	0.648
NCI-H1563	0.481	0.505	0.45	0.462	0.483						0.906	0.868	0.882	0.948	0.758	0.486	0.549	0.536	0.528	0.491
NCI-H1623	0.502	0.564	0.55	0.548	0.491											0.394	0.478	0.508	0.374	0.487
NCI-H1703						0.735	0.902	0.386	0.195	0.14	0.76	0.449	0.661	0.353	0.343					
NCI-H1793		0.511	0.374	0.33	0.413		0.448	0.393	0.478	0.547							0.228	0.289	0.159	0.263
NCI-H2342	0.308	0.317	0.323	0.298	0.326											0.816	0.739	0.585	0.507	0.787
SW 900	0.544	0.66	0.461	0.36	0.406											0.176	0.152	0.162	0.167	0.175
